Counter-ions that a name gives are not always drawn.
Tests used:
[1] = target: T1, PD-L1/PD-1 complex formation (Homo sapiens, UniProt Q9NZQ7); test: PD-L1/PD-1 Interaction Assay (ELISA platform); format: binding; settings: human PD-1-Fc coated plates, PD-L1-Fc-biotin 0.1 μg/ml, compounds pre-incubated 2 hours
T1 construct: purchased BPS Bioscience
Method: The ability of compounds to block PD-L1/PD-1 complex formation was evaluated using biochemical interaction assay based on the ELISA platform.
EIA/RIA high binding 96-well plates (Costar) were coated with human PD-1-Fc protein diluted in PBS to 0.5 μg/ml overnight at 4° C. The PD-1-Fc coated plates were washed in PBST and blocked in blocking buffer (2% BSA in PBST). Serially diluted compounds were pre-incubated with PD-L1-Fc-biotin (0.1 μg/ml final) for 2 hours on a shaker at room temperature. The PD-1-Fc coated plates were washed with PBST and solutions containing PD-L1 and compounds were added to the plates. The PD-1-Fc coated plates were incubated with PD-L1 and compound solution for 2 hours on a shaker at room temperature. After the incubation unbound PD-L1 was washed away with PBST and plates were incubated with the blocking buffer for 10 minutes. The bound PD-L1-Fc-biotin was detected with streptavidin-HRP and TMB substrate. The plates were read at OD450 nm in a plate reader (i3 from Molecular Devices) and percentages of inhibition of PD-L1/PD-1 complex formation were calculated.
PD-1-Fc protein was made at Polaris and PD-L1-Fc was purchased from BPS Bioscience.

T1 sequence (Q9NZQ7 19-239 limits assumed, one chain of several): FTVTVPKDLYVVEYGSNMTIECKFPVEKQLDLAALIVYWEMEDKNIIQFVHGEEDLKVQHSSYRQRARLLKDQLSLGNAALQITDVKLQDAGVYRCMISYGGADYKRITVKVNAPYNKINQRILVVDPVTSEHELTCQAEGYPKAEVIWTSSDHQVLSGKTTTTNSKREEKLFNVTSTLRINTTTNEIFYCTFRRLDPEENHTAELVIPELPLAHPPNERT

Row | Structure (SMILES) | melting point [°C] | IC50 [1] [nM]
1 | Cc1c(COc2ccc(CN3CCCC[C@H]3C(=O)O)cc2C#N)cccc1-c1cccc(COc2ccc(CN3CCCC[C@H]3C(=O)O)cc2C#N)c1C (as salt: trifluoroacetic acid salt) [Example 34, (2S,2′S)-1,1′-(((((2,2′-dimethyl-[1,1′-biphenyl]-3,3′-diyl)bis(methylene))bis(oxy))bis(3-cyano-4,1-phenylene))bis(methylene))bis(piperidine-2-carboxylic acid) di-trifluoroacetic acid salt] | 196 to 200 | 
2 | O=C(O)[C@@H]1CCCCN1Cc1ccc(OCc2cccc(-c3cccc(COc4ccc(CN5CCCC[C@H]5C(=O)O)cc4Br)c3)c2)c(Br)c1 [Example 8, (2S,2′S)-1,1′-(((([1,1′-Biphenyl]-3,3′-diylbis(methylene))bis(oxy))bis(3-bromo-4,1-phenylene))bis(methylene))bis(piperidine-2-carboxylic acid)] | 306 to 310 | 1010 to 30000
3 | O=C(O)[C@@H]1CCCCN1Cc1ccc(OCc2cccc(-c3cccc(COc4ccc(CN5CCCC[C@H]5C(=O)O)cc4Br)c3F)c2F)c(Br)c1 [Example 10, (2S,2′S)-1,1′-(((((2,2′-Difluoro-[1,1′-biphenyl]-3,3′-diyl)bis(methylene))bis(oxy))bis(3-bromo-4,1-phenylene))bis(methylene))bis(piperidine-2-carboxylic acid)] | 204 to 208 | 110 to 1000
4 | Cc1c(COc2ccc(CN3CCCC[C@H]3C(=O)O)cc2Cl)cccc1-c1cccc(COc2ccc(CN3CCCC[C@H]3C(=O)O)cc2Cl)c1C [Example 12, (2S,2′S)-1,1′-(((((2,2′-Dimethyl-[1,1′-biphenyl]-3,3′-diyl)bis(methylene))bis(oxy))bis(3-chloro-4,1-phenylene))bis(methylene))bis(piperidine-2-carboxylic acid)] | 184 to 188 | 11 to 100
5 | Cc1c(COc2ccc(CN3CCCC[C@H]3C(=O)O)cc2F)cccc1-c1cccc(COc2ccc(CN3CCCC[C@H]3C(=O)O)cc2F)c1C [Example 19, (2S,2′S)-1,1′-(((((2,2′-Dimethyl-[1,1′-biphenyl]-3,3′-diyl)bis(methylene))bis(oxy))bis(3-fluoro-4,1-phenylene))bis(methylene))bis(piperidine-2-carboxylic acid)] | 205 to 209 | 110 to 1000
6 | COc1cc(CN2CCCC[C@H]2C(=O)O)ccc1OCc1cccc(-c2cccc(COc3ccc(CN4CCCC[C@H]4C(=O)O)cc3OC)c2C)c1C [Example 20, (2S,2′S)-1,1′-(((((2,2′-Dimethyl-[1,1′-biphenyl]-3,3′-diyl)bis(methylene))bis(oxy))bis(3-methoxy-4,1-phenylene))bis(methylene))bis(piperidine-2-carboxylic acid)] | 192 to 196 | 1010 to 30000
7 | Cc1c(COc2ccc(CN3CCCC[C@H]3C(=O)O)cc2O)cccc1-c1cccc(COc2ccc(CN3CCCC[C@H]3C(=O)O)cc2O)c1C [Example 21, (2S,2′S)-1,1′-(((((2,2′-Dimethyl-[1,1′-biphenyl]-3,3′-diyl)bis(methylene))bis(oxy))bis(3-hydroxy-4,1-phenylene))bis(methylene))bis(piperidine-2-carboxylic acid)] | 143 to 147 | 1010 to 30000
8 | COc1cc(OCc2cccc(-c3cccc(COc4cc(OC)c(CNCCO)c(OC)c4)c3C)c2C)cc(OC)c1CNCCO [Example 22, 2,2′-((((((2,2′-Dimethyl-[1,1′-biphenyl]-3,3′-diyl)bis(methylene))bis(oxy))bis(2,6-dimethoxy-4,1-phenylene))bis(methylene))bis(azanediyl))bis(ethan-1-ol)] | 86 to 90 | 11 to 100

Further lines, results first:

Row | melting point [°C] | IC50 [1] [nM] | Structure (SMILES)
9 | 222 to 226 | 0.1 to 10 | Cc1c(COc2ccc(CN3CCCC[C@H]3C(=O)O)cc2Br)cccc1-c1cccc(COc2ccc(CN3CCCC[C@H]3C(=O)O)cc2Br)c1C [Example 1, (2S,2′S)-1,1′-(((((2,2′-dimethyl-[1,1′-biphenyl]-3,3′-diyl)bis(methylene))bis(oxy))bis(3-bromo-4,1-phenylene))bis(methylene))bis(piperidine-2-carboxylic acid)]
10 | 95 to 99 | 11 to 100 | CC(=O)NCCNCc1ccc(OCc2cccc(-c3cccc(COc4ccc(CNCCNC(C)=O)cc4Br)c3C)c2C)c(Br)c1 [Example 6, N,N′-(((((((2,2′-Dimethyl-[1,1′-biphenyl]-3,3′-diyl)bis(methylene))bis(oxy))bis(3-bromo-4,1-phenylene))bis(methylene))bis(azanediyl))bis(ethane-2,1-diyl))diacetamide]
11 | 260 to 264 | 0.1 to 10 | Cc1c(COc2ccc(CN3C[C@@H](O)C[C@H]3C(=O)O)cc2Br)cccc1-c1cccc(COc2ccc(CN3C[C@@H](O)C[C@H]3C(=O)O)cc2Br)c1C [Example 7, (2S,2'S,4S,4′S)-1,1′-(((((2,2′-Dimethyl-[1,1′-biphenyl]-3,3′-diyl)bis(methylene))bis(oxy))bis(3-bromo-4,1-phenylene))bis(methylene))bis(4-hydroxypyrrolidine-2-carboxylic acid)]
12 | 184 to 188 | 0.1 to 10 | O=C(O)[C@@H]1CCCCN1Cc1ccc(OCc2cccc(-c3cccc(COc4ccc(CN5CCCC[C@H]5C(=O)O)cc4Br)c3Cl)c2Cl)c(Br)c1 [Example 9, (2S,2′S)-1,1′-(((((2,2′-Dichloro-[1,1′-biphenyl]-3,3′-diyl)bis(methylene))bis(oxy))bis(3-bromo-4,1-phenylene))bis(methylene))bis(piperidine-2-carboxylic acid)]
13 | 191 to 195 | 11 to 100 | Cc1cc(CN2CCCC[C@H]2C(=O)O)ccc1OCc1cccc(-c2cccc(COc3ccc(CN4CCCC[C@H]4C(=O)O)cc3C)c2C)c1C [Example 11, (2S,2′S)-1,1′-(((((2,2′-Dimethyl-[1,1′-biphenyl]-3,3′-diyl)bis(methylene))bis(oxy))bis(3-methyl-4,1-phenylene))bis(methylene))bis(piperidine-2-carboxylic acid)]
14 | 287 to 291 | 0.1 to 10 | Cc1c(COc2ccc(CN3CCCC[C@H]3C(=O)O)cc2C(F)(F)F)cccc1-c1cccc(COc2ccc(CN3CCCC[C@H]3C(=O)O)cc2C(F)(F)F)c1C [Example 13, (2S,2′S)-1,1′-(((((2,2′-Dimethyl-[1,1′-biphenyl]-3,3′-diyl)bis(methylene))bis(oxy))bis(3-(trifluoromethyl)-4,1-phenylene))bis(methylene))bis(piperidine-2-carboxylic acid)]

— patent US20180065917A1, “IMMUNE CHECKPOINT INHIBITORS, COMPOSITIONS AND METHODS THEREOF” (Polaris Pharmaceuticals, Inc., priority 2016, published 2018)
